Here are results for six compounds from patent US8836218B2, “Methods of treatment using combination therapy” (Ambit Biosciences Corp., priority 2009, dated 2014).

pEC50: −log10 of the molar value. Read-outs that look alike come from different tables or passages of the source.

The test system of assay [1] is MV4-11 cell lines. Conditions: MV4-11, cladribine alone; read-out: reported EC50 value; cited from earlier work.
The test system of assay [2] is MV4-11 cell lines. The settings on record: MV4-11, etoposide alone; read-out: reported EC50 value; cited from earlier work.
The test system of assay [3] is MV4-11 solid tumor flank model. The assay can be described thus: In vivo study of AC220 plus Aza-C in the MV4-11 solid tumor flank model. The settings on record: for flank tumor volume: AC220 0.5 mkd PO. More on the design: species or system SCID mouse. On the procedure:
The size of the tumors averaged about 230 mm^3. […] Aza-C was delivered in a formulation of sterile saline (10 ml/kg/day, prepared in 5-day batches) at about 3 or about 1 mkd, QD, IP, and dose was adjusted for body weight. The average group starting body weight was about 20.6 g. The clinical signs and body weight were measured twice weekly. White blood cell (WBC) counts determined at the end of the Aza-C dosing period and again 7 days post drug treatment. The study was carried out in one or multiple treatment cycles with Aza-C delivered for 5 days on each 15 day cycle. […] [table]

Assay [4] deals with MV4-11 solid tumor flank model. The assay can be described thus: Efficacy study of AC220 plus cytarabine in the MV4-11 solid tumor flank model. It is filed as in vivo, SCID mouse. The settings on record: for sustained complete regressions: either agent alone (Groups 3 and 5): cytarabine 30 mkd IP Day 1 to 10, AC220 1 mkd PO Day 1 to 24. On the procedure:
Dosing was initiated on day 14 post-inoculation with groups of 10 animals per arm. The size of the tumors averaged about 222 mm^3. […] Cytarabine was delivered in a formulation of sterile saline (5 ml/kg/day, prepared weekly) at about 30 or about 60 mkd, QD, IP, and dose was adjusted for body weight. […] The clinical signs and body weight were measured twice weekly. White blood cell (WBC) counts determined at the end of the cytarabine dosing period and again 7 days post drug treatment. The study was carried out in one or multiple treatment cycles with cytarabine delivered for 10 days on each 24 day cycle. […] [table]

Assay [5] relates to MV4-11 cell lines. Conditions: MV4-11, cytarabine alone; read-out: reported EC50 value; cited from earlier work.
Assay [6] concerns MV4-11 cell lines. As to the kind of experiment: AC220 in combination with etoposide, cell viability study (CellTiter-Blue). It is filed as cell-based. The settings on record: Homo sapiens; MV4-11, AC220 alone. On the procedure:
(§1) In this assay, the sequence of administration of AC220 and etoposide was examined for its cytotoxic effect. For the combination schedules tested, MV4-11 cell lines were cultured in RPMI medium with 10% fetal bovine serum and penicillin/streptomycin to a density of 3e5/mL to 1e6/mL and plated at 6e5 cells per well. […] Cytotoxicity was assessed using the CellTiter-Blue™ Viability Assay (#G8081 Promega). A combination index (CI) value was generated for each combination experiment using a commercially available software program (Calcusyn; Biosoft, Manchester, United Kingdom). The interaction of the two agents was analyzed using the median effect method of Chou and Talalay (Adv. Enyme Regul. 1984; 22:27-55). The Combination index and Weighted combination index were calculated as described in Chou, Pharmacol. Rev. 58:621-681, 2006.
As described by Chou, supra, the ranges of CI indicate synergism, additive effect, and antagonism as follows:
CI<1—synergism, CI=1—additive effect, and CI>1—antagonism.
In general terms: Alamar Blue is a resazurin reagent that responds to reducing activity.

For assay [7], the system named is MV4-11 cell lines. As to the kind of experiment: AC220 in combination with daunorubicin, cell viability study (CellTiter-Blue). It counts as cell-based. Conditions: Homo sapiens; MV4-11, AC220 alone. As to the method:
as §1, with “daunorubicin” for “etoposide”, “22:27-55).” for “22:27-55). The Combination index and Weighted combination index were calculated as described in Chou, Pharmacol. Rev. 58:621-681, 2006.”

The test system of assay [8] is MV4-11 cell lines. As to the kind of experiment: AC220 in combination with cladribine, cell viability study (CellTiter-Blue). It is filed as cell-based. Conditions: Homo sapiens; MV4-11, AC220 alone. On the procedure:
as §1, with “cladribine” for “etoposide”, “Iscove” for “RPMI”, “3e5/mL” for “3e5/mL to 1e6/mL”, “6e4” for “6e5”, “22:27-55).” for “22:27-55). The Combination index and Weighted combination index were calculated as described in Chou, Pharmacol. Rev. 58:621-681, 2006.”

Assay [9] has as its system MV4-11 cell lines. The assay can be described thus: AC220 in combination with cytarabine, cell viability study (CellTiter-Blue). The settings on record: Homo sapiens; MV4-11, AC220 alone. It is filed as cell-based.
Method: In this assay, the sequence of administration of AC220 and cytarabine was examined for its cytotoxic effect. For the combination schedules tested, MV4-11 cell lines were cultured in Iscove medium with 10% fetal bovine serum and penicillin/streptomycin to a density of 3e5/mL and plated at 6e4 cells per well. […] Cytotoxicity was assessed using the CellTiter-Blue™ Viability Assay (#G8081 Promega). A combination index (CI) value was generated for each combination experiment using a commercially available software program (Calcusyn; Biosoft, Manchester, United Kingdom). The interaction of the two agents was analyzed using the median effect method of Chou and Talalay (Adv. Enyme Regul. 1984; 22:27-55).
For assay [10], the system named is MV4-11 cell lines. The settings on record: MV4-11, daunorubicin alone; read-out: reported EC50 value; cited from earlier work.

What is called pEC50 is −log10 of the EC50, conventionally taken in molar units.

On to `Nc1nc(Cl)nc2c1ncn2[C@H]1C[C@H](O)[C@@H](CO)O1` [cladribine], for which the pEC50 in the assay on MV4-11 cell lines [1] was 7.79.
For the compound `COc1cc([C@@H]2c3cc4c(cc3[C@@H](O[C@@H]3O[C@@H]5CO[C@@H](C)O[C@H]5[C@H](O)[C@H]3O)[C@H]3COC(=O)[C@H]23)OCO4)cc(OC)c1O` [etoposide], in the assay on MV4-11 cell lines [2], the pEC50 is 7.46.
With `Nc1ncn([C@@H]2O[C@H](CO)[C@@H](O)[C@H]2O)c(=O)n1` [Aza-C, azacitidine], the “reduction in tumor volume” value in assay [3] (Aza-C at the 3 mkg dose, IP, Day 1 to 5) is listed as roughly 50%.
As to `Nc1ccn([C@@H]2O[C@H](CO)[C@@H](O)[C@@H]2O)c(=O)n1` [cytarabine], in [4], the sustained complete regressions entry is recorded as “no sustained complete regressions”. Moreover, in assay [4] (sequential, second administration of Ara-C in animals that had 2 weeks of AC220 treatment), the tumor burden result was “capable of reducing tumor burden”. Also, in the assay with MV4-11 cell lines [5], the pEC50 is 6.42.
As for `CC(C)(C)c1cc(NC(=O)Nc2ccc(-c3cn4c(n3)sc3cc(OCCN5CCOCC5)ccc34)cc2)no1` [AC220, N-(5-tert-butyl-isoxazol-3-yl)-N′-{4-[7-(2-morpholin-4-yl-ethoxy)imidazo[2,1-b][1,3]benzothiazol-2-yl]phenyl}urea], in [4], the sustained complete regressions entry is listed as “no sustained complete regressions”. The flank tumor volume entry in assay [3] (treatment at 15 days post inoculation) and in assay [3] (treatment at 20 days post inoculation) was “tumor stasis” throughout. Besides, the pEC50 in the assay on MV4-11 cell lines [6], in the assay with MV4-11 cell lines [7], in the assay on MV4-11 cell lines [8] and with MV4-11 cell lines [9] was 9.46 in each case.
Regarding `COc1cccc2c1C(=O)c1c(O)c3c(c(O)c1C2=O)C[C@@](O)(C(C)=O)C[C@@H]3O[C@H]1C[C@H](N)[C@H](O)[C@H](C)O1` [daunorubicin], in the assay on MV4-11 cell lines [10], the pEC50 is 7.90.
